From Sander's compilation of Henry's law constants (doi:10.5985/jec.7.81)

Assay: Henry solubility constant Hcp at 298.15 K (mol/(m3 Pa))
Conditions: reference: Kondoh and Nakajima (1997)

ClCC(Cl)(Cl)Cl [1,1,1,2-tetrachloroethane]
Henry solubility constant Hcp: 0.0043

CC(Cl)(Cl)Cl [1,1,1-trichloroethane]
Henry solubility constant Hcp: 0.00067

ClCC(Cl)Cl [1,1,2-trichloroethane]
Henry solubility constant Hcp: 0.011

C=C(Cl)Cl [1,1-dichloroethene]
Henry solubility constant Hcp: 0.00046

CC=C(Cl)Cl [1,1-dichloropropene]
Henry solubility constant Hcp: 0.00054

Clc1cccc(Cl)c1Cl [1,2,3-trichlorobenzene]
Henry solubility constant Hcp: 0.015

ClCC(Cl)CCl [1,2,3-trichloropropane]
Henry solubility constant Hcp: 0.028

Cc1ccc(C)c(C)c1 [1,2,4-trimethylbenzene]
Henry solubility constant Hcp: 0.0023

ClCC(Br)CBr (centres undefined) [1,2-dibromo-3-chloropropane]
Henry solubility constant Hcp: 0.5

CC(Cl)CCl (centres undefined) [1,2-dichloropropane]
Henry solubility constant Hcp: 0.0043

Cc1ccccc1C [1,2-dimethylbenzene]
Henry solubility constant Hcp: 0.0019

Cc1cc(C)cc(C)c1 [1,3,5-trimethylbenzene]
Henry solubility constant Hcp: 0.0015

Clc1cccc(Cl)c1 [1,3-dichlorobenzene]
Henry solubility constant Hcp: 0.0038

ClCCCCl [1,3-dichloropropane]
Henry solubility constant Hcp: 0.011

Cc1cccc(C)c1 [1,3-dimethylbenzene]
Henry solubility constant Hcp: 0.0015

Clc1ccc(Cl)cc1 [1,4-dichlorobenzene]
Henry solubility constant Hcp: 0.0047

Cc1ccc(C)cc1 [1,4-dimethylbenzene]
Henry solubility constant Hcp: 0.0015

Cc1ccc(Cl)cc1 [1-chloro-4-methylbenzene]
Henry solubility constant Hcp: 0.0029

Cc1ccc(C(C)C)cc1 [1-methyl-4-(1-methylethyl)-benzene]
Henry solubility constant Hcp: 0.001

CC(C)(Cl)Cl [2,2-dichloropropane]
Henry solubility constant Hcp: 0.00071

CC(C)(C)c1ccccc1 [(1,1-dimethylethyl)-benzene]
Henry solubility constant Hcp: 0.00094

CCC(C)c1ccccc1 (centres undefined) [(1-methylpropyl)-benzene]
Henry solubility constant Hcp: 0.00075

CC(C)c1ccccc1 [(2-propyl)-benzene]
Henry solubility constant Hcp: 0.001

c1ccccc1 [benzene]
Henry solubility constant Hcp: 0.0018

Brc1ccccc1 [bromobenzene]
Henry solubility constant Hcp: 0.0049

ClCBr [bromochloromethane]
Henry solubility constant Hcp: 0.0078

ClC(Cl)Br [bromodichloromethane]
Henry solubility constant Hcp: 0.0054

CCCCc1ccccc1 [butylbenzene]
Henry solubility constant Hcp: 0.00091

Clc1ccccc1 [chlorobenzene]
Henry solubility constant Hcp: 0.003

Cl/C=C\CCl [cis-1,3-dichloropropene]
Henry solubility constant Hcp: 0.0063

ClC(Br)Br [dibromochloromethane]
Henry solubility constant Hcp: 0.0098

BrCBr [dibromomethane]
Henry solubility constant Hcp: 0.012

ClCCl [dichloromethane]
Henry solubility constant Hcp: 0.0037

C=Cc1ccccc1 [ethenylbenzene]
Henry solubility constant Hcp: 0.0038

CCc1ccccc1 [ethylbenzene]
Henry solubility constant Hcp: 0.0014

ClC(Cl)=C(Cl)C(Cl)=C(Cl)Cl [hexachlorobutadiene]
Henry solubility constant Hcp: 0.0007

Cc1ccccc1 [methylbenzene]
Henry solubility constant Hcp: 0.0017

c1ccc2ccccc2c1 [naphthalene]
Henry solubility constant Hcp: 0.017

CCCc1ccccc1 [propylbenzene]
Henry solubility constant Hcp: 0.0011

ClC(Cl)=C(Cl)Cl [tetrachloroethene]
Henry solubility constant Hcp: 0.00069

ClC(Cl)(Cl)Cl [tetrachloromethane]
Henry solubility constant Hcp: 0.00044

Cl/C=C/CCl [trans-1,3-dichloropropene]
Henry solubility constant Hcp: 0.01

BrC(Br)Br [tribromomethane]
Henry solubility constant Hcp: 0.014

ClC=C(Cl)Cl [trichloroethene]
Henry solubility constant Hcp: 0.0011
